Experimental data reported in US20210290784A1, “POSITRON EMISSION TOMOGRAPHY (PET) RADIOTRACERS FOR IMAGING MACROPHAGE COLONY-STIMULATING FACTOR 1 RECEPTOR (CSF1R) IN NEUROINFLAMMATION” (The Johns Hopkins University, priority 2018, published 2021).
Entries after “also recorded” stand apart in the source; their conditions may differ.

How the values were obtained:
[1] = test system: CSF1R; assay: Brain uptake in CSF1R knock-out vs control mice; type: in vivo; settings: whole brain, 45 min
Protocol: B6.Cg-Csf1rtml.2Jwp/J (CSF1R knock-out, KO) mice (21-23 g; age=four to eight weeks; Jackson Laboratories, Bar Harbor, Me.) (5 animals) and age-matched C57BL/6J controls (23-27 g) (5 animals) were used. […] The outcome variables were calculated as % SUV.

[2] = molecular target: T1, CSF1R (Mus musculus, UniProt P09581); assay: Brain uptake in transgenic mouse model of AD; type: in vivo, mice; design: from tissue; host or cells: brain of living CD-1, C57BL/6J, transgenic APP (AD model), EAE and CSF1R KO mice; settings: all brain regions, 45 min
T1 sequence (P09581 20-977): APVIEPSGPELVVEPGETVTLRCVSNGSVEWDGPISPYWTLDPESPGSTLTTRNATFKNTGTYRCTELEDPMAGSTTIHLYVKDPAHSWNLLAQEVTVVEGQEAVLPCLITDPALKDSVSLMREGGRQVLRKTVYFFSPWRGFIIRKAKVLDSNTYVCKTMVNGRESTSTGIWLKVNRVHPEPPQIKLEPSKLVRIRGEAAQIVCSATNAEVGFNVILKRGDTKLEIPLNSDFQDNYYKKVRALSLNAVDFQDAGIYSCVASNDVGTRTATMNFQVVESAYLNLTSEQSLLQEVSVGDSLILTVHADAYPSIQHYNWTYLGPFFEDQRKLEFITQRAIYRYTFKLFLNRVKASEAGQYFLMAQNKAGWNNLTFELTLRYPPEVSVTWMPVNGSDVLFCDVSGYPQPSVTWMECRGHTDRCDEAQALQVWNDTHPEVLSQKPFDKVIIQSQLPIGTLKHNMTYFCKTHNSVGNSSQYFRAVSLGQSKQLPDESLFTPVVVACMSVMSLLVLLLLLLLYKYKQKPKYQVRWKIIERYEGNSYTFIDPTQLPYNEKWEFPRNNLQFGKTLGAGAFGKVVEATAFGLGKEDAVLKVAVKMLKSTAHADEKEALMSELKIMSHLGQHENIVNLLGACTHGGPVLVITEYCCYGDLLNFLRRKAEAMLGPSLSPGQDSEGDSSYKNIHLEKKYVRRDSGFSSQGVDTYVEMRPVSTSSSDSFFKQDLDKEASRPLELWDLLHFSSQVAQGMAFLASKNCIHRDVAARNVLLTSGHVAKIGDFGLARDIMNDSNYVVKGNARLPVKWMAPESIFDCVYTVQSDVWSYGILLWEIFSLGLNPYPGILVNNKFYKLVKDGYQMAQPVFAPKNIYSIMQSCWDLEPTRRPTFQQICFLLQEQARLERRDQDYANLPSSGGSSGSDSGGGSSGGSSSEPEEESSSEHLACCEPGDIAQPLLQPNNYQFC
Text: Mouse model of Alzheimer's disease-related amyloidosis overexpressed Amyloid Precursor Protein (APP) with Swedish and Indiana mutations was used. The transgenic APP had tetracycline transactivator (tTa)-sensitive promoter that was activated by over-expressing tTa driven by CaMKII promoter (5). Due to such combination of transgenes, the overexpression of transgenic APP was observed only in principal neurons of the forebrain. […] The Alzheimer's male mice (AD) and their sex-matched control littermates were 16 months of age at the time of the study. […] The outcome variables were calculated as % SUV.

[3] = molecular target: T1, CSF1R; assay: Brain uptake in intracranial LPS (i.c.-LPS) mouse model of neuroinflammation; type: in vivo; design: from tissue; host or cells: brain of living CD-1, C57BL/6J, transgenic APP (AD model), EAE and CSF1R KO mice; settings: i.c.-LPS mice
Protocol: (§1) Experiment 1, FIG. 1A. […] CD1 mice were anaesthetized with avertin (250 mg/kg, IP). Peri-procedural analgesia was provided with finadine (2.5 mg/kg, SC). The coordinates for intraparenchymal injection in the right forebrain were AP −0.5 mm′ DV −2.5 mm; and ML 1.0 right of midline. The holes were drilled perpendicularly to the previously exposed skull. Sterile phosphate buffered saline (PBS) (0.5 μL) or 5 μg lipopolysaccharide (LPS, 011:B4, Calbiochem, San Diego, Calif.) in 0.5 μL PBS was injected into the brain parenchyma using a 1 μL Hamilton syringe. After injection, the needle was kept in the brain for additional 3 min and slowly removed. The incision was sealed with dental cement. […] The whole brains were removed and dissected on ice. […] The outcome variables were calculated as % SUV.
as §1, with “2,” for “1,”, “1B.” for “1A.”, “The” for “CD1”

[11CH3]N1CCN(c2ccc(NC(=O)c3ccc(C#N)o3)c(N3CCCCC3)c2)CC1 [[^11C]CPPC, 5-cyano-N-(4-(4-[^11C]methylpiperazin-1-yl)-2-(piperidin-1-yl)phenyl)furan-2-carboxamide]
brain uptake (% SUV) in CSF1R KO mouse brain vs. controls [1]: comparable | uptake in brain regions of AD mice vs control [2]: significantly greater; also recorded: significantly higher | specific fraction of elevated binding vs. sham animals [3]: ~50% | reduction of uptake by blocking with nonradiolabeled CPPC, low dose ([3]; blocker 0.3 mg/kg IP): insignificant | reduction of uptake by blocking with nonradiolabeled CPPC, higher doses ([3]; blocker 0.6 or […] IP): significantly reduced
